The test system of test [1] is Rice. Put plainly: Greenhouse transplant rice test, rice injury. It counts as in vivo, Rice (Bluebelle). Conditions: Oryza sativa, about 3 WAT, read-out: Percent Inhibition, Rice. An excerpt:
(§1) The test procedure used in this greenhouse test is as follows: Ray silt loam top soil containing about 0.05% by weight of krillium and sifted through a […] screen is fumigated about 5-10 days prior to use. Pots are then filled with said Ray silt loam soil to a level to allow for a 1 in. (2.54 cm) flooding depth. Rice plants (Bluebelle) of 2 to 3 weeks age are transplanted to the pots and bulbs or seeds of the test weeds also planted in the pots. The pots are then flooded and the test chemical applied to the surface of the flood water. The flood water is reduced to allow for germination of the Echinochloa crus-galli (barnyardgrass) seed and subsequently reflooded and maintained in that condition. Observations of percent inhibition using a scale of 0-100% are made about 3 weeks after transplant (WAT).
(§2) The test data in Table III for all compounds was obtained under identical test conditions. The weeds used in the tests herein have the following abbreviations in the tables: Echinochloa crus-galli (EC), Monochloria vaginalis (MV), Cyperus Serotinus (CS), Eleocharis Kuroguwai (EK) and Sagittaria trifolia (ST).

The subject of test [2] is Sagittaria trifolia. The test can be described thus: Greenhouse transplant rice test, ST. The test is classed as in vivo. The note with it: Sagittaria trifolia, about 3 WAT, read-out: Percent Inhibition, ST.
Text: as §1, §2

The subject of test [3] is Eleocharis kuroguwai. Put plainly: Greenhouse transplant rice test, EK. Conditions: about 3 WAT, read-out: Percent Inhibition, EK. The test is classed as in vivo.
Text: as §1, §2

The results in this text go back to US4345938A, “Herbicidal 2-haloacetanilides” (Monsanto Company, priority 1980, dated 1982).

In the case of `CCCCOc1cccc(CC)c1N(CC)C(=O)CCl` [Example 2, N-ethyl-2'-n-butoxy-6'-ethyl-2-chloroacetanilide], the results for the inhibition at 280 g/ha in test [1] (0.28 Kg/Ha), in test [2] (0.28 Kg/Ha) and in test [3] (0.28 Kg/Ha) were 0%, 30% and 100%, respectively. Also, the inhibition – broadly, the share of the control response that was lost under treatment – at 560 g/ha came to 10% in test [1] (0.56 Kg/Ha), 25% in test [2] (0.56 Kg/Ha) and 100% in test [3] (0.56 Kg/Ha). Also, the inhibition at 1120 g/ha worked out at 15% in test [1] (1.12 Kg/Ha), 70% in test [2] (1.12 Kg/Ha) and 100% in test [3] (1.12 Kg/Ha). The results for the inhibition at 2240 g/ha in test [1] (2.24 Kg/Ha), in test [2] (2.24 Kg/Ha) and in test [3] (2.24 Kg/Ha) were 25%, 55% and 100%, respectively.
